From PubChem BioAssay (NCI)
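Compound exposure: 48 hours, 5 concentrations, 96-well plates. Definition used: TGI = concentration required for complete inhibition of growth.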

How the values were obtained:
Assay in all cases: NCI anticancer screen, dose series, 48 h
BT-549 breast = test system: BT-549 breast
NCI/ADR-RES ovarian = test system: NCI/ADR-RES ovarian
OVCAR-4 ovarian = test system: OVCAR-4 ovarian
OVCAR-8 ovarian = test system: OVCAR-8 ovarian
SK-MEL-28 melanoma = test system: SK-MEL-28 melanoma
SN12C renal = test system: SN12C renal
SW-620 colon = test system: SW-620 colon
HOP-62 NSCLC = test system: HOP-62 NSCLC
MOLT-4 leukemia = test system: MOLT-4 leukemia
SF-539 CNS = test system: SF-539 CNS

Structure (SMILES)	TGI (BT-549 breast)	TGI (NCI/ADR-RES ovarian)	TGI (OVCAR-4 ovarian)	TGI (OVCAR-8 ovarian)	TGI (SK-MEL-28 melanoma)	TGI (SN12C renal)	TGI (SW-620 colon)	TGI (HOP-62 NSCLC)	TGI (MOLT-4 leukemia)	TGI (SF-539 CNS)
Nc1c(-c2nc3ccccc3s2)c2ccc([N+](=O)[O-])cc2c(=O)n1-c1cccc(C(=O)O)c1	64.3 µM	> 100 µM	> 100 µM	68.6 µM	59.8 µM	84.2 µM	> 100 µM	–	–	–
CC1(C)CC[C@]2(C)CC=C3[C@]4(C)CC[C@H]5C(C)(C)C(=O)CC[C@]5(C)[C@H]4CC[C@@]3(C)[C@H]2C1	–	> 100 µM	> 100 µM	> 100 µM	> 100 µM	> 100 µM	> 100 µM	> 100 µM	> 100 µM	> 100 µM
CCCc1cc(=O)oc2c3c(c4c(c12)OC(C)(C)C=C4)O[C@@H](C)[C@H](C)C3=O	29.6 µM	35.4 µM	–	45.4 µM	25.7 µM	41.4 µM	32.2 µM	35.5 µM	26.8 µM	37.4 µM
O=[N+]([O-])c1cccc2nc3ccccc3c(NCCc3cccc[n+]3[O-])c12	0.0917 µM	8.67 µM	0.212 µM	0.302 µM	< 0.01 µM	0.28 µM	0.197 µM	0.245 µM	–	0.194 µM
O=C1CN2Cc3cc(N4CCOCC4)ccc3N=C2N1	> 100 µM	> 100 µM	> 100 µM	> 100 µM	> 100 µM	> 100 µM	> 100 µM	> 100 µM	> 100 µM	–
CCCCc1c2c(nc3c1CCCC3O)/C(=C/c1ccccc1)CCC2 (stereo not given)	–	–	> 100 µM	> 100 µM	94.3 µM	62.5 µM	64.2 µM	> 100 µM	38.7 µM	66.9 µM
CC1(C)CC(=O)C2=C(C1)c1c(ccc3ccccc13)NC2c1cn(Cc2ccc(Cl)cc2)c2ccccc12 (stereo not given)	> 100 µM	> 100 µM	> 100 µM	> 100 µM	–	> 100 µM	> 100 µM	> 100 µM	> 100 µM	> 100 µM
COC(OC)c1cccc2c1C(=O)CCC1(O)c3ccccc3C1C2 (stereo not given)	–	–	> 100 µM	> 100 µM	> 100 µM	> 100 µM	> 100 µM	> 100 µM	> 100 µM	> 100 µM
CCOC(=O)CCC(NC(=O)c1ccc(Oc2nc3ccc(C(F)(F)F)cc3nc2-c2ccccc2)cc1)C(=O)OCC (stereo not given)	–	> 100 µM	> 83 µM	> 57.7 µM	> 100 µM	> 100 µM	> 100 µM	> 89.5 µM	> 100 µM	> 34.3 µM
COc1ccc(C2C3C(=O)C=CC(=O)C3[C@@H]2C)cc1OC (stereo not given in full)	–	–	> 100 µM	> 100 µM	> 100 µM	–	> 100 µM	> 100 µM	91.9 µM	> 100 µM
O=C1CCC[C@]2(CCC[C@@H](O)C2)N1	> 100 µM	> 100 µM	> 100 µM	> 100 µM	–	> 100 µM	–	> 100 µM	–	> 100 µM
N#Cc1c(-c2ccco2)cc(-c2ccc(NCc3nc4ccccc4[nH]3)cc2)nc1N	–	–	66.3 µM	46.3 µM	67.5 µM	59.6 µM	> 100 µM	62.8 µM	39.7 µM	47.6 µM
CCCC/C=C/C1Cc2ccccc2CN1S(=O)(=O)c1ccc(C)cc1 (stereo not given)	–	–	24.7 µM	28.6 µM	22.7 µM	23 µM	24.1 µM	> 100 µM	53.3 µM	33 µM
COc1ccc2nc3cccc([N+](=O)[O-])c3c(NCCO)c2c1	–	0.0939 µM	0.153 µM	0.0532 µM	0.0626 µM	0.0792 µM	0.00862 µM	0.0668 µM	–	0.052 µM
CC1CC[C@@]2(OC1)OC1C[C@H]3[C@@H]4C/C(=N\N(C)C)[C@@]5(O)CC(O)CC[C@]5(C)[C@H]4CC[C@]3(C)C1[C@@H]2C (stereo not given in full)	> 100 µM	> 100 µM	> 100 µM	–	> 100 µM	> 100 µM	> 100 µM	> 100 µM	> 100 µM	> 100 µM
NC(=O)N1N=C2c3ccccc3CC[C@@H]2C1c1ccccc1 (stereo not given in full)	–	–	–	> 100 µM	> 100 µM	> 100 µM	> 100 µM	> 100 µM	> 100 µM	> 100 µM
COC(=O)C1=C(C(=O)OC)C2(OC(C)=O)c3ccccc3-c3ccccc3C12 (stereo not given)	–	–	6.48 µM	12.2 µM	11.9 µM	9.28 µM	3.12 µM	48.3 µM	–	31.6 µM
Cc1ccc(-c2c(C#N)c(S)n(NS(=O)(=O)c3ccc(C)cc3)c(=O)c2C#N)cc1	47.8 µM	77.9 µM	36.4 µM	41.8 µM	61.2 µM	> 100 µM	39.3 µM	–	> 100 µM	43.2 µM
CN(C)c1ccc(/C=C(\C#N)C(N)=C(C#N)C#N)cc1	> 100 µM	> 100 µM	> 100 µM	> 100 µM	> 100 µM	> 100 µM	> 100 µM	> 100 µM	–	> 100 µM
CSC(C1c2ccccc2N(C)C2=NC(=O)N(C)C(=O)C21Cl)S(=O)(=O)c1ccc(C)cc1 (stereo not given)	–	–	> 100 µM	46.3 µM	75.4 µM	> 100 µM	71.1 µM	> 100 µM	40.8 µM	> 100 µM
O=C(/C=C/c1ccc(Cl)cc1)Oc1ccc(/C=C2\CCCCC2=O)cc1	–	–	> 100 µM	> 100 µM	> 100 µM	> 100 µM	> 100 µM	> 100 µM	73.9 µM	> 100 µM
CC1OC(OC2C(O[C@H]3CC[C@@]4(C)[C@@H](CC[C@@H]5[C@@H]4CC[C@]4(C)[C@@H]6[C@H](C[C@@H]54)O[C@]4(CC[C@@H](C)CO4)[C@H]6C)C3)OC(CO)C(OC3OC(CO)C(O)C(OC4OCC(O)C(O)C4O)C3OC3OCC(O)C(O)C3O)C2O)C(O)C(O)C1O (stereo not given in full)	2.36 µM	3.13 µM	2.89 µM	3.25 µM	2.04 µM	–	0.348 µM	2.03 µM	–	1.25 µM
Nc1nc(SCCNC(=O)CCc2ccc(O)cc2)nc2c1ncn2C1OC(CO)C(O)C1O (stereo not given)	–	–	> 203 µM	> 203 µM	> 203 µM	> 203 µM	> 203 µM	> 203 µM	> 203 µM	> 203 µM
Clc1ccc(SCCSCCCCCCCCCCSCCSc2ccc(Cl)cc2)cc1	–	–	–	> 100 µM	> 100 µM	> 100 µM	> 100 µM	> 100 µM	> 100 µM	> 100 µM
